The values below come from ChEMBL document CHEMBL1201862, “PubChem BioAssay data set” (2004).

Activity calls are given as the source filed them.

The target of one test is T1, Protein skinhead-1 (Caenorhabditis elegans, UniProt P34707).
T1 sequence (P34707 whole entry): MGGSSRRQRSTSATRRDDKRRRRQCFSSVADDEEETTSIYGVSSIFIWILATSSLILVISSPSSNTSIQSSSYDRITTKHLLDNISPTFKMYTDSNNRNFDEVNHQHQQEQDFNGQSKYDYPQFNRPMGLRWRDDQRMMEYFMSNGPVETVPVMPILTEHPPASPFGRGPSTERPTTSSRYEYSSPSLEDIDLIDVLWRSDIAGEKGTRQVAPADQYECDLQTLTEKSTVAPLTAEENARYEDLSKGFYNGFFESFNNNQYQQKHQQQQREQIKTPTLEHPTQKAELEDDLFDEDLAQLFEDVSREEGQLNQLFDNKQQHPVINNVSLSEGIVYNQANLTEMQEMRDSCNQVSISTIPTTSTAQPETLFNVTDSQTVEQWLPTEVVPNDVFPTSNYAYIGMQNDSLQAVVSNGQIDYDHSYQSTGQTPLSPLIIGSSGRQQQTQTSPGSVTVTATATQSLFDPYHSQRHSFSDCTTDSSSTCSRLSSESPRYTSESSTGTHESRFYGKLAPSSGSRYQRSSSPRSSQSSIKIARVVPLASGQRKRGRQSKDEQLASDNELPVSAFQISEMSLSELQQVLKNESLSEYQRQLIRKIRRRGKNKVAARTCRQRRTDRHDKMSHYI
The class given is functional.

Test [1] addresses Luciferin 4-monooxygenase (Photinus pyralis, UniProt P08659). Description: firefly luciferase enzyme inhibitors, dose response, biochemical, luminescence (AID 1891).
A short description of test [2]: Luminescence Cell-Based Dose Confirmation HTS to Identify Inhibitors of Platelet Dense Granule Release. [Related pubchem assays: 1663 (Primary HTS), 1678 (Summary of Project)]. In kind it is functional.
The target in the next test is Paired box protein Pax-8 (Homo sapiens, UniProt Q06710). The test is described as follows: inhibitors of PAX8-driven TPO luciferase reporter, dose response, RMG-I cells, cherry-pick (AID 687027).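 Note: luciferase reporter driven by Pax8 target thyroperoxidase promoter measured by SteadyGlo luminescence.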 In kind it is functional, cell-based. In general terms: In a reporter assay the amount or activity of a reporter protein is the signal.
Chain of Paired box protein Pax-8 (Q06710 whole entry): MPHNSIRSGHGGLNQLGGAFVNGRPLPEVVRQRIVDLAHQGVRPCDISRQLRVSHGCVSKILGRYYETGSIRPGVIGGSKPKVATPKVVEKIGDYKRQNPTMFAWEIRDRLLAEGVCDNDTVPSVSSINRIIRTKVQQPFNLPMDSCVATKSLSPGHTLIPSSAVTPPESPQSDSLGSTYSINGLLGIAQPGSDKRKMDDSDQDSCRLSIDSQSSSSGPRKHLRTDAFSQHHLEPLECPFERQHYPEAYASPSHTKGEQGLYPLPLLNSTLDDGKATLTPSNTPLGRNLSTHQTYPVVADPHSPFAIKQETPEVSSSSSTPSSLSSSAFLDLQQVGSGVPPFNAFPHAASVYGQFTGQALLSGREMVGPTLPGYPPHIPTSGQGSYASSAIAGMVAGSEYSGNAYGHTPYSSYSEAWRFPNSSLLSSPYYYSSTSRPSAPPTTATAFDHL
Test [3] addresses T2, Ubiquitin-conjugating enzyme E2 N (Homo sapiens, UniProt P61088).
T2 sequence (P61088 whole entry): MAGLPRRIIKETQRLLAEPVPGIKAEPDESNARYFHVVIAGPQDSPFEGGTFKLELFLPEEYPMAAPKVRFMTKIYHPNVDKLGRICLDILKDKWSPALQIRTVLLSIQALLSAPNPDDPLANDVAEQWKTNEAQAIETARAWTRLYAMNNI
In kind it is functional.

The nature of test [4]: cytotoxicity toward NIH3T3 fibroblasts, dose response, counter-screen, cell-based, ATP luminescence, mouse fibroblasts (AID 2010).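 Note: cells exposed to compound for about 90 hours before reading.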 The class given is functional.
Test [5] is described as follows: inhibitors of intracellular T. cruzi replication, confirmation, NIH3T3 host cells, beta-gal luminescence (AID 2044).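 Note: intracellular parasites grown in NIH/3T3 mouse fibroblasts as host cells; luminescent beta-galactosidase reporter signal from transgenic T. cruzi replicating inside host cells; inhibitors lower the luminescence signal.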 In kind it is functional, cell-based.
For test [6], the target named is T3, Rac GTPase-activating protein 1 (Homo sapiens, UniProt Q9H0H5).
T3 sequence (Q9H0H5 whole entry): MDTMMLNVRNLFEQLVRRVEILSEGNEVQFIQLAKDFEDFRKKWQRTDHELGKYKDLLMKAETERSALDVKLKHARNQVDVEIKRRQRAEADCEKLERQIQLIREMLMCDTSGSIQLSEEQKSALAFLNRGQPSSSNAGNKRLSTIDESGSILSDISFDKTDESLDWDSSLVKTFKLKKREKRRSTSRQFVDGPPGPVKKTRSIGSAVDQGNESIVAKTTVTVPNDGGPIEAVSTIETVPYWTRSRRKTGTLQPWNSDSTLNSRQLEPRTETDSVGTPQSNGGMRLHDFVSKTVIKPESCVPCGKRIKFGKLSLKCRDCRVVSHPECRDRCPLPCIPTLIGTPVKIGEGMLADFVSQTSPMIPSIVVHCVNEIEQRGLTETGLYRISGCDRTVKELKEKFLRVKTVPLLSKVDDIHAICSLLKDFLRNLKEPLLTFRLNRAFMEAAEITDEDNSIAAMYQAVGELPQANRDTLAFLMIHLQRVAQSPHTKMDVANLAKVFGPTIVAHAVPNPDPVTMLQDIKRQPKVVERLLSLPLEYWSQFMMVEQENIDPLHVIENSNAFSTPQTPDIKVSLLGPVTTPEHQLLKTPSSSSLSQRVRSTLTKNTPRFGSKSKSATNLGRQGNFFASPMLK
Description: MgcRacGAP GTPase-activating activity inhibitors, confirmation, biochemical, ADP Hunter fluorescence, primary and confirmatory (AID 624330). The class given is functional.

Another test deals with H9c2. Description: cells. In kind it is functional, cell-based. The following applies: Rattus norvegicus, H9c2, Myocardium.
Test [7] addresses T4, Heat shock factor protein 1 (Mus musculus, UniProt P38532).
T4 sequence (P38532 whole entry): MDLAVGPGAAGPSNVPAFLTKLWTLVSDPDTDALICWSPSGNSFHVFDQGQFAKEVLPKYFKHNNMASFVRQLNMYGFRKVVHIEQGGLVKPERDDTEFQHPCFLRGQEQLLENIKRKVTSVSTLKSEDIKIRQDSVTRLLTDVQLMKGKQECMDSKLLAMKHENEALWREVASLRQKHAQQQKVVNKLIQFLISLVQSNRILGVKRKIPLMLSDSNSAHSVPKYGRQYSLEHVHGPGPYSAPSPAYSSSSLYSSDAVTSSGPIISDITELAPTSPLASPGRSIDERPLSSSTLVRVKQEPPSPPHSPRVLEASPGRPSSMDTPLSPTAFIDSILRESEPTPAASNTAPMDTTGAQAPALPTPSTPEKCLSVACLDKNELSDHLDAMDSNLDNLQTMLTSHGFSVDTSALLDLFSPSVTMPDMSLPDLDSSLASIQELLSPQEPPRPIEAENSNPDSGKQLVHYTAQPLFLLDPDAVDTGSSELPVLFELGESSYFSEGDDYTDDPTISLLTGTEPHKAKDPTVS
The test is described as follows: inhibition of MG132-induced HSE-luciferase signal, confirmation, cell-based, NIH3T3, luminescence, dose retest (AID 2382).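 Note: NIH3T3 fibroblasts with HSF1-driven luciferase reporter stressed by proteasome inhibitor MG132; luminescence from HSF1-driven luciferase expression after 8 hours of MG132 stress.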 The class given is functional.

The next test relates to INS1. Description: beta cell apoptosis inhibitors, cytokine rescue, dose response, luminescence, retest (AID 449756).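 Note: cell death triggered by IL-1 beta plus TNF-alpha plus IFN-gamma mixture; protective hits raise ATP signal compared with cytokine alone wells.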 The class given is functional, cell-based. The following applies: Rattus norvegicus.
Test [8] can be described thus: growth suppression of PTEN-null colon cells, dose response, cell-based, HCT116 PTEN knockout (AID 1047).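 Note: HCT116 colon tumor cells with PTEN knocked out; cells exposed to compound for 60 hours before readout; potency for loss of cell viability measured by luminescence.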 The class given is functional.

Chain of Luciferin 4-monooxygenase (P08659 whole entry): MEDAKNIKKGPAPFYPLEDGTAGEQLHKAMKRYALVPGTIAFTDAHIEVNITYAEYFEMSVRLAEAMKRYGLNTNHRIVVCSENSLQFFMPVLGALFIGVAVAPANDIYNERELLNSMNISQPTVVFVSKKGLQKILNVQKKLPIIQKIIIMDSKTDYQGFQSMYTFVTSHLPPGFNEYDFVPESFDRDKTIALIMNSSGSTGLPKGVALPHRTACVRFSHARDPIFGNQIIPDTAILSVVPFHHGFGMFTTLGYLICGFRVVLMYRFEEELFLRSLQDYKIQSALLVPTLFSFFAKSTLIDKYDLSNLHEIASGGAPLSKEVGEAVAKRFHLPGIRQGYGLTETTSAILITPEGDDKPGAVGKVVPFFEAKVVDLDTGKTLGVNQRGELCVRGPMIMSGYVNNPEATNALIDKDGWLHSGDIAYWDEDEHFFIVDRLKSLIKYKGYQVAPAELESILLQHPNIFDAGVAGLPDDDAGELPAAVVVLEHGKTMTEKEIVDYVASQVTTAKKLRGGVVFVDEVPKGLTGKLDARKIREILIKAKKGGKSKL

Consider `COCCn1c(CCC(=O)O)nc2c1c(=O)[nH]c(=O)n2CC(C)C`, for which the IC50 at Protein skinhead-1 is > 100 µM (inactive). `CC/C(=N\NC(=O)Nc1ccccc1)c1ccccc1`: the EC50 in test [1] and in [2] was > 112 µM (not active) in each case. Regarding `C[C@H]1CCCCO[C@H](CN(C)C(=O)Nc2ccc(C(F)(F)F)cc2)[C@@H](C)CN([C@@H](C)CO)C(=O)c2cc(NC(=O)c3ccncc3)ccc2O1`, the AC50 at Paired box protein Pax-8 was 17.1 µM (active). As for `COCCCN(C(=O)Cc1ccc(Cl)c(Cl)c1)c1c(N)n(Cc2ccccc2)c(=O)[nH]c1=O`, the half-maximal effective concentration (EC50) in test [1] and in test [2] was > 112 µM (not active) throughout. `COc1ccc(C(=O)Nc2ccc3oc(-c4cccc(F)c4)nc3c2)cc1OC`: the IC50 in test [3] is > 20 µM (inactive). For the compound `CCN(CC)CCNC(=O)c1cc2c(s1)-c1ccccc1SC2`, the values for the EC50 in test [4] and in test [5] were 7.38 µM (active) and 2.27 µM (active), respectively. The IC50 in test [3] is > 20 µM (inactive). As to `COc1ccc(NS(=O)(=O)c2cccc(-c3nnc(-c4ccccc4)o3)c2)cc1`, the IC50 on Protein skinhead-1 was > 100 µM (inactive).

As for `O=C1CC(NNC(=O)c2ccc(Br)cc2)C(=O)N1` (configuration not stated), the IC50 on Protein skinhead-1 is > 100 µM (inactive).

`CCCc1cc(C(=O)Nc2ccc(Cl)cn2)cs1`: the IC50 at Protein skinhead-1 was > 100 µM (inactive). Turning to `Cc1c(C2=CCN(S(=O)(=O)c3ccc(Cl)cc3)CC2)c2ccccc2n1C`, the IC50 on Protein skinhead-1 was > 100 µM (inactive). Regarding `CCN(CC)CCNC(=O)c1cc2c(=O)n(CC)c3ccccc3c2s1`, the IC50 in test [3] is > 20 µM (inactive). On to `O=C(Nc1ccccc1C(=O)N/N=C/c1ccco1)c1ccc(F)cc1`, for which the figures for the EC50 in test [1] and in test [2] were 0.295 µM (active) and 10.4 µM (active), respectively. As to `CCOC(=O)C1=C(c2ccccc2)O/C(=C(/C(=O)OC)C(F)(F)F)S1`, in test [3], the IC50 is > 20 µM (inactive).

Take `CCOc1ccc(CCNC(=O)c2oc3c(c2C)-c2n[nH]cc2CC3)cc1OCC`: the concentration for a half-maximal effect (EC50) in test [1] and in [2] was > 112 µM (not active) each time.

In the case of `CCOC(=O)C1CCN(C(=O)c2ccc3c(c2)S(=O)(=O)c2ccccc2C3=O)CC1`, the IC50 at Protein skinhead-1 is > 100 µM (inactive). For the compound `CCC[C@@H](CN1CCC[C@H]1CN1C(N)=NC[C@@H]1Cc1ccccc1)N1C[C@@H](Cc2ccccc2)N(CCc2ccc(Cl)c(Cl)c2)C1=N`, the IC50 in test [3] was > 20 µM (inactive). For `COc1ccc(C(O)CNc2ccc(C)cc2)cc1` (configuration not stated), on Protein skinhead-1, the IC50 was > 100 µM (inactive). On to `Cc1nonc1C(=O)N/N=C/c1cccc(O)c1`, for which the EC50 in test [1] is 13.5 µM (active); in test [2] it was 4.56 µM (active). Take `CCC1CCCN1Cn1cnc2c3cc(Cl)ccc3nc-2c1O` (configuration not stated): the EC50 in [1] was > 112 µM (not active); in test [2], 48.3 µM (active). In the case of `Nn1c(=S)[nH]c2sc3c(c2c1=O)CCCC3`, the IC50 was 74.3 µM (active) in test [6] and > 100 µM (inactive) at Protein skinhead-1. As for `COc1ccc(CCNC(=O)Cn2c(=O)n(-c3ccc(C)c(F)c3)c(=O)c3sccc32)cc1OC`, the IC50 in test [3] is > 20 µM (inactive). Regarding `NS(=O)(=O)c1ccc(CCNC(=O)c2ccc(C#CC3(O)CCCCC3)cc2)cc1`, the IC50 in the test with H9c2 is > 79 µM (inactive). In [7], the EC50 is 7.97 µM (active). For the compound `COc1cc2[nH]c(=S)n(CCN3CCCCC3C)c(=O)c2cc1OC` (configuration not stated), at Protein skinhead-1, the IC50 was > 100 µM (inactive).

For the compound `O=C(CN(c1cccc([N+](=O)[O-])c1)S(=O)(=O)c1ccccc1)NCc1ccccc1`, the EC50 in test [1] is > 112 µM (not active); in test [2] it was 46.7 µM (active). As for `CC(C)CCCCCCN=C(S)Nc1ccc(S(=O)(=O)N2CCOCC2)cc1`, the half-maximal activity concentration (AC50) in the test on INS1 is 7.7 µM (active). The EC50 in test [8] was 77 µM (active).

For orientation: IC50 means the concentration needed to halve the response being measured. As a reminder, the EC50 is the concentration giving half of the maximal effect. Usually AC50 stands for the concentration at which the activity in the assay is half-maximal.
